One experiment deals with BACE1 (Homo sapiens, UniProt P56817). Description: BACE1 activity assay (FRET, cell-free). Conditions: peptide final concentration 20 μM, 90 minutes, room temperature. Also on record: purchased Pan Vera Co., Madison, Wis., USA. In kind it is biochemical. How it is done: BACE1 Activity Assay—The BACE1 inhibiting activity of APP-based BACE1 site binding peptides were determined using a fluorescence resonance energy transfer (FRET) assay (Pan Vera Co., Madison, Wis., USA), which employs a recombinant baculovirus-expressed BACE1 and a specific substrate (Rh-[…]-quencher) that is based on the APPswe mutation. This specific peptide substrate becomes highly fluorescent upon enzymatic cleavage. A mixture of 10 μL of BACE1 (1.0 U/mL in 50 mM Tris, pH7.5, 10% glycerol), 10 μL of FRET-substrate, and 10 μL of the various APP-based BACE1 site binding peptides (final concentration 20 μM) were incubated for 90 minutes in the dark at room temperature. Then, 10 μL of BACE1 stop buffer (2.5 M sodium acetate) was added to the mixture. Fluorescence was read using a fluorometer, with excitation at 545 nm and emission at 585 nm.
Sequence of BACE1 (P56817 46-501): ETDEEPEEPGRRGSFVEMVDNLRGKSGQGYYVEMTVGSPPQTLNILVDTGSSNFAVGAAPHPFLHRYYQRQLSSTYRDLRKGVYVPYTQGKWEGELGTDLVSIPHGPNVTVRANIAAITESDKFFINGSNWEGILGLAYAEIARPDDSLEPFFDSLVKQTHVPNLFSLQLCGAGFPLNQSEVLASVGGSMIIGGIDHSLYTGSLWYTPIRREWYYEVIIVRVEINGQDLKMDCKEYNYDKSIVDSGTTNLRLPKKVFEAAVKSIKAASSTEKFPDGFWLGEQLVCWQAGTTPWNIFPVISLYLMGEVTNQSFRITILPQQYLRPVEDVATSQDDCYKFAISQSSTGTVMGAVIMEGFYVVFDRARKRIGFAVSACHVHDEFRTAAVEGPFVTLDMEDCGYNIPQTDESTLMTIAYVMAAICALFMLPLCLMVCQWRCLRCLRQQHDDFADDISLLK
As a required enzyme for the generation of neurotoxic Aβ from APP, BACE1 is well established as an important mediator of AD β-amyloid pathology. As such, it has become an important target for new disease modifying therapeutics. However, since BACE1 also has important physiological roles, abolishment of the enzyme or its activity may lead to deleterious side effects as evidenced by numerous failed clinical trials discussed previously. […] Since previous studies have established a close relationship between α-helix structure and peptide-protein (or protein-protein) interactions (Azzarito, 2013; Rao et al., 2013), several APP based peptides were synthesized that might serve as a preferable substrate for BACE1. Importantly, these peptides were free of the Aβ-containing segment and, thus, cannot be amyloidogenic. In theory, these could be used to “hijack” the BACE1 processing of endogenous APP and lead to a decrease in cerebral Aβ. These BACE1 substrates and controls were incubated with recombinant BACE1 and percent of inhibition of the enzyme was calculated. […] These findings indicate that the α-helical TAT fusion domain may help to promote selective APPsweBBP proteolysis by BACE1, yielding substrate competition against human wild-type APP.

In experiment [1] the test system is CHO cells over-expressing human wild-type APP (CHO/APPwt). Description: Aβ and sAPPα production in cultured media of CHO/APPwt cells by ELISA (24 hours). Type of experiment: cell-based, Chinese hamster. Particulars: 20 μg/mL. How it is done:
(§1) Cell Culture—Chinese hamster ovary (CHO) cells engineered to express wild-type human APP (CHO/APPwt cells) or Swedish mutant human APP (CHO/APPswe cells) were kindly provided by Dr. Stefanie Hahn and Dr. Sascha Weggen (University of Heinrich Heine, Dusseldorf, Germany). As described previously (Obregon et al., 2012), these cells were cultured in Dulbecco's modified Eagle's medium (DMEM) with 10% fetal bovine serum (FBS), 1 mM sodium pyruvate, and 100 units/mL of penicillin and streptomycin.
To confirm the binding of APPsweBBP with BACE1, CHO/APPwt cells were plated in 8-well chambers (5×10^5/well), incubated with TAT-APPsweBBP-biotin or APPsweBBP-biotin at 20 μM for 30 minutes, fixed with 4% paraformaldehyde for 20 minutes, washed and permeabilized with 0.5% Triton X-100. Following application of blocking buffer, these cells were stained with mouse anti-BACE1 and rabbit anti-biotin antibodies overnight at 4° C. for immunocytochemistry analysis. […] The cultured media were collected for Aβ analysis by enzyme-linked immunosorbent assay (ELISA) and sAPPα analysis by ELISA and Western blot (WB). Cell lysates were also prepared for analysis of APP amyloidogenic processing by WB.
(§2) ELISA—Mouse brains were homogenized in ice-cold lysis buffer for 30 seconds using a Minilys tissue homogenizer (Bertin Technologies, Montigny-le-Bretonneux, France) set at high speed, allowed to stand for 15 minutes at 4° C., and centrifuged at 15,000 rpm for 30 minutes. Soluble Aβ1-40/42 species and sAPPα were directly detected in cultured cell media or brain homogenates using the Aβ1-40/42 (Invitrogen) and sAPPα ELISA kits (IBL-America, Minneapolis, Minn., USA).
(§3) To further examine the ability of the Swedish mutant APP BACE1 binding peptide/Tat fusion peptides to decrease Aβ production, CHO cells overexpressing either human wild-type APP (CHO/APPwt cells) or Swedish mutant APP (hereinafter referred to as “CHO/APPswe cells”) are treated with a variety of APP-based BACE1 inhibitor peptides, as shown in Table 1 and Table 2. Aβ production is determined using ELISA.

The test system of experiment [2] is CHO cells over-expressing human Swedish mutant APP (CHO/APPswe). Description: Aβ and sAPPα production in cultured media of CHO/APPswe cells by ELISA. Particulars: 20 μg/mL, 24 hours. Type of experiment: cell-based, Chinese hamster. How it is done: as §1
To confirm the binding of APPsweBBP with BACE1, CHO/APPwt cells were plated in 8-well chambers (5×10^5/well), incubated with TAT-APPsweBBP-biotin or APPsweBBP-biotin at 20 μM for 30 minutes, fixed with 4% paraformaldehyde for 20 minutes, washed and permeabilized with 0.5% Triton X-100. Following application of blocking buffer, these cells were stained with mouse anti-BACE1 and rabbit anti-biotin antibodies overnight at 4° C. for immunocytochemistry analysis. In order to determine the inhibitory effects of TAT-APPsweBBP on BACE1-mediated APP β-cleavage and subsequent Aβ production, both CHO/APPwt and CHO/APPswe cells were plated in 24 well-plates (3×10^5/well) and treated with TAT-APPsweBBP at 0-20 μM for 24 hours. The cultured media were collected for Aβ analysis by enzyme-linked immunosorbent assay (ELISA) and sAPPα analysis by ELISA and Western blot (WB). Cell lysates were also prepared for analysis of APP amyloidogenic processing by WB.
as §2, §3
On the technique in general: ELISA stands for enzyme-linked immunosorbent assay.

The subject of another experiment is CHO/APPwt cells. Description: Aβ production in CHO/APPwt cells by ELISA (Example 1, 4 hours). In kind it is cell-based, Chinese hamster. Particulars: 20 μg/mL. As for the experimental part: To examine the effects of various Swedish Tat fusion peptides on Aβ production, human wild-type amyloid precursor protein (APP) is overexpressed in Chinese hamster ovary cells (hereinafter referred to as CHO/APPwt cells), and the cells are treated with either PBS control (Phosphate buffered saline); Swedish peptide-1 (SwePep-1), […] (also referred herein as “APPsweBBP1”) (SEQ ID NO: 5); Swedish peptide-2 (SwePep-2) (also referred herein as “APPsweBBP”), […] (SEQ ID NO: 1); Swedish Tat fusion peptide-1 (SweTatPep-1), […] (also referred herein as “APPsweBBP/TTD1”) (SEQ ID NO: 6); or Swedish Tat fusion peptide-2 (SweTatPep-2) (also referred herein as “APPsweBBP/TTD2” and “TAT-APPsweBBP”), […] (SEQ ID NO: 3). APPsweBBP is a truncated fragment of APPswe spanning 12 amino acid residues (Glu665-Arg676). TAT, an 11-amino acid-residue protein-transduction domain derived from the HIV-1 transactivator of transcription protein, was conjugated at the C-terminus of APPsweBBP and biotin was conjugated at the N-terminus.
Following treatment, Aβ production is determined utilizing ELISA and the results illustrated in FIG. 1A. SweTatPep-2, SwePep-2, SwePep-1 and SweTatPep-1 each reduce Aβ40,42 by 63-65%, 30-33%, 31-34% and 37-38%, respectively.

Take “YGRKKRRQRRREISEVKMDAEFR (human-virus fusion) [APPwtBBP/TTD2]”: the “% of inhibition (mean ± SD) of BACE1” value with BACE1 came to 21.01 ± 1.42%. Besides, in experiment [1], the “Secreted Aβ40 (ng/mg; mean ± SD)” value came to 6.53 ± 0.81 ng/mg, the “Secreted Aβ42 (ng/mg; mean ± SD)” value amounted to 0.68 ± 0.034 ng/mg and the “Secreted sAPPα (ng/mg; mean ± SD)” value is 5291.14 ± 142.75 ng/mg. In experiment [2], the “Secreted Aβ40 (ng/mg; mean ± SD)” value worked out at 40.32 ± 8.43 ng/mg, the “Secreted Aβ42 (ng/mg; mean ± SD)” value is listed as 6.78 ± 0.92 ng/mg and the “Secreted sAPPα (ng/mg; mean ± SD)” value amounted to 267.92 ± 15.88 ng/mg.
“YGRKKRRQRRREVKMDAEFR (human-virus fusion) [APPwtBBP/TTD3]”: in experiment [1], the “Secreted Aβ40 (ng/mg; mean ± SD)” value was found to be 10.12 ± 1.11 ng/mg and the “Secreted sAPPα (ng/mg; mean ± SD)” value is 4699.15 ± 155.92 ng/mg. In experiment [2], the “Secreted Aβ40 (ng/mg; mean ± SD)” value stood at 57.45 ± 13.11 ng/mg, the “Secreted Aβ42 (ng/mg; mean ± SD)” value is recorded as 9.56 ± 1.11 ng/mg and the “Secreted sAPPα (ng/mg; mean ± SD)” value stood at 201.23 ± 21.23 ng/mg.
Take “YGRKKRRQRRREVNLDAEFR (human-virus fusion) [APPsweBBP/TTD3]”: in experiment [1], the “Secreted Aβ40 (ng/mg; mean ± SD)” value came to 8.74 ± 0.55 ng/mg, the “Secreted Aβ42 (ng/mg; mean ± SD)” value worked out at 0.93 ± 0.048 ng/mg and the “Secreted sAPPα (ng/mg; mean ± SD)” value was 5001.45 ± 271.34 ng/mg. Moreover, in experiment [2], the “Secreted Aβ40 (ng/mg; mean ± SD)” value was 41.87 ± 5.76 ng/mg, the “Secreted Aβ42 (ng/mg; mean ± SD)” value was determined as 8.43 ± 0.95 ng/mg and the “Secreted sAPPα (ng/mg; mean ± SD)” value is recorded as 211.37 ± 18.93 ng/mg.
On to “YGRKKRRQRRRIKTEEISEVKMDAEFR (human-virus fusion) [APPwtBBP/TTD1]”, for which, in experiment [1], the “Secreted Aβ40 (ng/mg; mean ± SD)” value came out at 9.32 ± 0.68 ng/mg, the “Secreted Aβ42 (ng/mg; mean ± SD)” value came out at 1.01 ± 0.052 ng/mg and the “Secreted sAPPα (ng/mg; mean ± SD)” value turned out to be 4688.12 ± 109.65 ng/mg. In experiment [2], the “Secreted Aβ40 (ng/mg; mean ± SD)” value is 64.21 ± 12.12 ng/mg, the “Secreted Aβ42 (ng/mg; mean ± SD)” value amounted to 7.82 ± 0.67 ng/mg and the “Secreted sAPPα (ng/mg; mean ± SD)” value is on record as 229.45 ± 12.73 ng/mg.
On to “YGRKKRRQRRRIKTEEISEVNLDAEFR (human-virus fusion) [APPsweBBP/TTD1]”, for which, in the experiment on CHO/APPwt cells, the “reduction of Aβ40,42” value is given as 37-38%. Further, in experiment [1], the “Secreted Aβ40 (ng/mg; mean ± SD)” value worked out at 8.93 ± 0.82 ng/mg, the “Secreted Aβ42 (ng/mg; mean ± SD)” value was determined as 0.95 ± 0.037 ng/mg and the “Secreted sAPPα (ng/mg; mean ± SD)” value was found to be 4901.54 ± 211.54 ng/mg. For the same sequence, in experiment [2], the “Secreted Aβ42 (ng/mg; mean ± SD)” value was 7.98 ± 0.81 ng/mg and the “Secreted sAPPα (ng/mg; mean ± SD)” value came out at 236.32 ± 13.09 ng/mg.

(Values after patent publication US9926354B2, “Amyloid precursor protein (APP) based Ã#-secretase inhibitor peptides, and methods of use” (UNIVERSITY OF SOUTH FLORIDA, priority 2014, dated 2018).)
